Marks after values point to notes of the source that are not given here.
Test system: healthy volunteers
Assay: First-in-human single-ascending-dose study: safety and tolerability
Type: in vivo
Conditions: for lowest observed neutrophil count: 24 h after 40 mg
Description: The first-in-human study was conducted at the University of Cape Town Clinical Research Centre (Cape Town, South Africa) between 30 April 2014 and 2 February 2015. This was a phase 1, adaptive, single-center, double-blind, randomized, placebo-controlled, ascending-dose study. The study was planned in two parts, with a single ascending dose and then a multiple ascending dose. However, the multiple-ascending-dose part was not executed due to the high variability in pharmacokinetic profiles observed during the single-ascending-dose part (see Results).
(i) First-in-human study. The study was conducted in five fasted cohorts (5, 20, 40, 80, and 120 mg) and one fed 40-mg cohort. The initial dose of 5 mg was chosen in agreement with guidelines on dose selection for first-in-human clinical studies ([15], [16]) and was based on the no-observed-adverse-event level for the most sensitive species observed in preclinical toxicology studies. Doses administered to subsequent cohorts were determined a priori after consideration of interim human pharmacokinetic and safety data.
MMV390048 and placebo were each supplied as a powder for suspension packaged in white opaque high-density polyethylene bottles, with a volume capacity of 100 ml when reconstituted with deionized water (Almac Pharma Services, United Kingdom). The powder contained the following excipients: Avicel CL611, disodium edetate, sodium citrate dihydrate, methyl paraben, sucralose, povidone, and orange flavor. The reconstituted formulation consisted of the active ingredient MMV390048 in an aqueous suspension of 5 mg ml^−1.
All subjects in the fasted cohorts were dosed on day 1 after a fasting period of ≥8 h. Water was prohibited from 2 h predose and then allowed ad libitum from 2 h postdose, and standardized meals were provided from 4 h postdose. In the first two cohorts (5 and 20 mg), a sentinel subcohort (n = 2) was dosed on day 1. The safety review team reviewed safety and pharmacokinetic data of these subjects up to day 3 before dosing the rest of these two cohorts and up to day 19 for all cohorts before dose escalation. […] Selected subjects from the fasted cohorts then received 40 mg in a fed state to evaluate the effect of food on the tolerability and pharmacokinetic profile of MMV390048. […] The predose breakfast was in line with FDA guidelines ([13]) and was composed of approximately 800 to 1,000 calories (cal), with 150, 250, and 500 to 600 cal from protein, carbohydrate, and fat, respectively.
Safety endpoints were the incidence, severity, and relationship to the investigational product (and inoculum for the IBSM study) of observed and self-reported adverse events (AEs), and changes from baseline in physical examination, vital signs, standard electrocardiograms (ECGs), continuous ECGs (first-in-human study only), and laboratory evaluation (hematology, coagulation parameters, hemolysis panel, clinical chemistry, and urinalysis) findings. […] AE severity was evaluated according to the Common Terminology Criteria for Adverse Events version 4.03 ([18]) and the World Health Organization recommendations for grading acute and subacute toxic effects ([19]).

[1] = first-in-human study, 5 mg (n = 6)
[2] = first-in-human study, 20 mg (n = 6)
[3] = first-in-human study, 40 mg (n = 6)
[4] = first-in-human study, 40 mg (n = 6), AE was neutropenia
[5] = first-in-human study, 40 mg FED (n = 6)
[6] = first-in-human study, 40 mg FED (n = 6), AE was neutropenia
[7] = first-in-human study, 80 mg (n = 6)
[8] = first-in-human study, 120 mg (n = 6)
[9] = first-in-human study, 120 mg (n = 6), SAE was generalized myoclonus

SMILES: CS(=O)(=O)c1ccc(-c2cnc(N)c(-c3ccc(C(F)(F)F)nc3)c2)cc1 [MMV390048]
- serious AE (SAE) reported (approximately 24 h after 120 mg, subject with undisclosed history of epilepsy): generalized myoclonus
- No. (%) of subjects with adverse events: All AEs [1]: 4 (67)
- No. (%) of subjects with adverse events: All AEs, Treatment related [1]: 0
- No. (%) of subjects with adverse events: Grade 2 AEs [1]: 0
- No. (%) of subjects with adverse events: Grade 2 AEs, Treatment related [1]: 0
- No. (%) of subjects with adverse events: Grade 3 AEs [1]: 0
- No. (%) of subjects with adverse events: SAEs [1]: 0
- No. of adverse events: All AEs [1]: 11
- No. of adverse events: All AEs, Treatment related [1]: 0
- No. of adverse events: Grade 2 AEs [1]: 0
- No. of adverse events: Grade 2 AEs, Treatment related [1]: 0
- No. of adverse events: Grade 3 AEs [1]: 0
- No. of adverse events: SAEs [1]: 0
- No. (%) of subjects with adverse events: All AEs [2]: 5 (83)
- No. (%) of subjects with adverse events: All AEs, Treatment related [2]: 3 (50)
- No. (%) of subjects with adverse events: Grade 2 AEs [2]: 4 (67)
- No. (%) of subjects with adverse events: Grade 2 AEs, Treatment related [2]: 1 (17)
- No. (%) of subjects with adverse events: Grade 3 AEs [2]: 0
- No. (%) of subjects with adverse events: SAEs [2]: 0
- No. of adverse events: All AEs [2]: 12
- No. of adverse events: All AEs, Treatment related [2]: 3
- No. of adverse events: Grade 2 AEs [2]: 5
- No. of adverse events: Grade 2 AEs, Treatment related [2]: 1
- No. of adverse events: Grade 3 AEs [2]: 0
- No. of adverse events: SAEs [2]: 0
- No. (%) of subjects with adverse events: All AEs [3]: 5 (83)
- No. (%) of subjects with adverse events: All AEs, Treatment related [3]: 3 (50)
- No. (%) of subjects with adverse events: Grade 2 AEs [3]: 3 (50)
- No. (%) of subjects with adverse events: Grade 2 AEs, Treatment related [3]: 1 (17)
- No. (%) of subjects with adverse events: SAEs [3]: 0
- No. of adverse events: All AEs [3]: 19
- No. of adverse events: All AEs, Treatment related [3]: 3
- No. of adverse events: Grade 2 AEs [3]: 4
- No. of adverse events: Grade 2 AEs, Treatment related [3]: 1
- No. of adverse events: SAEs [3]: 0
- No. (%) of subjects with adverse events: Grade 3 AEs [4]: 1 (17)^c
- No. of adverse events: Grade 3 AEs [4]: 1^c
- No. (%) of subjects with adverse events: All AEs [5]: 6 (100)
- No. (%) of subjects with adverse events: All AEs, Treatment related [5]: 2 (33)
- No. (%) of subjects with adverse events: Grade 2 AEs [5]: 2 (33)
- No. (%) of subjects with adverse events: Grade 2 AEs, Treatment related [5]: 1 (17)
- No. (%) of subjects with adverse events: SAEs [5]: 0
- No. of adverse events: All AEs [5]: 22
- No. of adverse events: All AEs, Treatment related [5]: 2
- No. of adverse events: Grade 2 AEs [5]: 2
- No. of adverse events: Grade 2 AEs, Treatment related [5]: 1
- No. of adverse events: SAEs [5]: 0
- No. (%) of subjects with adverse events: Grade 3 AEs [6]: 1 (17)^c
- No. of adverse events: Grade 3 AEs [6]: 1^c
- No. (%) of subjects with adverse events: All AEs [7]: 6 (100)
- No. (%) of subjects with adverse events: All AEs, Treatment related [7]: 2 (33)
- No. (%) of subjects with adverse events: Grade 2 AEs [7]: 5 (83)
- No. (%) of subjects with adverse events: Grade 2 AEs, Treatment related [7]: 0
- No. (%) of subjects with adverse events: Grade 3 AEs [7]: 0
- No. (%) of subjects with adverse events: SAEs [7]: 0
- No. of adverse events: All AEs [7]: 20
- No. of adverse events: All AEs, Treatment related [7]: 3
- No. of adverse events: Grade 2 AEs [7]: 6
- No. of adverse events: Grade 2 AEs, Treatment related [7]: 0
- No. of adverse events: Grade 3 AEs [7]: 0
- No. of adverse events: SAEs [7]: 0
- No. (%) of subjects with adverse events: All AEs [8]: 6 (100)
- No. (%) of subjects with adverse events: All AEs, Treatment related [8]: 1 (17)
- No. (%) of subjects with adverse events: Grade 2 AEs [8]: 2 (33)
- No. (%) of subjects with adverse events: Grade 2 AEs, Treatment related [8]: 1 (17)
- No. (%) of subjects with adverse events: Grade 3 AEs [8]: 0
- No. of adverse events: All AEs [8]: 11
- No. of adverse events: All AEs, Treatment related [8]: 1
- No. of adverse events: Grade 2 AEs [8]: 3
- No. of adverse events: Grade 2 AEs, Treatment related [8]: 1
- No. of adverse events: Grade 3 AEs [8]: 0
- No. (%) of subjects with adverse events: SAEs [9]: 1 (17)^e
- No. of adverse events: SAEs [9]: 1^e
- trends in inhibin B, FSH, LH, or testosterone levels (first-in-human study, across dose groups): No trends
- adverse events considered potentially related to MMV390048 (first-in-human study, all MMV390048 cohorts): Twelve
- QT prolongation (QTcF, >450 ms) (first-in-human study, any subject): No QT prolongation
- decrease in blood pressure (to) (first-in-human study, mild related AE, one subject): 87/52
- diarrhea considered related to MMV390048, cases (first-in-human study, moderate severity, in 2 subjects): 2
- duration of moderate papular urticaria episode (one subject, 20 mg): 20 days
- onset of moderate papular urticaria after dosing (one subject, 20 mg): 14 days
- time for neutrophil count to return to >1.5 × 10^9 liter^−1 (one subject, 40 mg fasted): 4 days
- time for neutrophil count to return to >1.5 × 10^9 liter^−1 (one subject, 40 mg fed): 13 days
- PR prolongation on ECG, maximum (one subject, 24 h after 20 mg, PR 200.3 ms on admission): 285 ms
- lowest observed neutrophil count (one subject, fasted state (predose 1.65)): 7.7e+08 L⁻¹
- lowest observed neutrophil count (one subject, fed state (predose 1.90)): 9.7e+08 L⁻¹
- tolerability (single oral dose up to 120 mg, healthy volunteers): generally well tolerated
